Tested on: SARS-CoV-2
Assay: Functional immunofluorescence assay to measure dose dependent changes in antiviral-drug inhibitory efficacy against hCoV-19/USA-WA1/2020 in HeLa-ACE2 cells which are seeded prior to drug treatment, then infected with hCoV-19/USA-WA1/2020. Cells are fixed with 10 % formaldehyde, washed with PBS, permeabilized with permeabilization buffer, then washed with wash buffer. The cells are incubated with nucleoprotein primary antibody IC7C7. Following primary staining, cells are washed with wash buffer and incubated in a solution of with Alexa fluor 488 and DAPI. Infected and uninfected cells are visualized and analyzed by Gen5 software. The assay has been performed by Icahn School of Medicine at Mount Sinai.
Format: organism-based, Homo sapiens
Conditions: for EC50: Severe acute respiratory syndrome coronavirus 2, HeLa-ACE2

Compound CCNC(=O)c1cc2c(N[C@@H](c3ccc4c(c3)S(=O)(=O)CCO4)C(C)C)ncnc2[nH]1 has an EC50 of over 20 µM and an EC90 (Severe acute respiratory syndrome coronavirus 2, HeLa-ACE2, Baseline response 0 %, Hill slope -0.398, Maximum measured 111.753 %, Maximum response 100 %, Minimum measured 79.377 %, R squared 0.175) of over 20 µM.
Cc1nn(C)cc1-c1cc2c(N[C@@H](c3ccc4c(c3)S(=O)(=O)CCC4)C(C)C)ncnc2[nH]1 gave an EC50 of over 20 µM and an EC90 (Severe acute respiratory syndrome coronavirus 2, HeLa-ACE2, Maximum measured 131.643 %, Minimum measured 93.649 %) of over 20 µM.
Work on CCNC(=O)c1cc2c(N[C@@H](c3ccc4c(c3)S(=O)(=O)CCC4)C(C)C)ncnc2[nH]1 yielded an EC50 of over 20 µM and an EC90 (Severe acute respiratory syndrome coronavirus 2, HeLa-ACE2, Baseline response 0 %, Hill slope -4.495, Maximum measured 108.517 %, Maximum response 100 %, Minimum measured 90.612 %, R squared 0.096) of over 20 µM.
With CNC(=O)c1cccc(-c2cc3c(N[C@@H](c4ccc5c(c4)S(=O)(=O)CCC5)C(C)C)ncnc3[nH]2)c1 the EC50 was over 20 µM and the EC90 (Severe acute respiratory syndrome coronavirus 2, HeLa-ACE2, Baseline response 0 %, Hill slope -1.505, Maximum measured 108.746 %, Maximum response 100 %, Minimum measured 56.34 %, R squared 0.642) was over 20 µM.
CC(C)[C@@H](Nc1ncnc2[nH]c(-c3cnn(C)c3)cc12)c1ccc2c(c1)S(=O)(=O)NCC2 showed an EC50 of over 20 µM and an EC90 (Severe acute respiratory syndrome coronavirus 2, HeLa-ACE2, Baseline response 0 %, Hill slope -6.715, Maximum measured 105.419 %, Maximum response 100 %, Minimum measured 69.993 %, R squared 0.42) of over 20 µM.
CC(C)[C@H](Nc1ncnc2[nH]c(-c3cnn(C)c3C#N)cc12)c1ccc2c(c1)S(=O)(=O)CCC2 gave an EC50 of 6.21 µM and an EC90 (Severe acute respiratory syndrome coronavirus 2, HeLa-ACE2, Baseline response 0 %, Hill slope -14.93, Maximum measured 129.006 %, Maximum response 100 %, Minimum measured 5.734 %, R squared 0.877) of 7.19 µM.
CC(C)(C)[C@H](Nc1ncnc2[nH]c(-c3cnn(CC(N)=O)c3)cc12)c1ccc2c(c1)OCCO2 gave an EC50 of over 20 µM and an EC90 (Severe acute respiratory syndrome coronavirus 2, HeLa-ACE2, Baseline response 0 %, Hill slope -0.655, Maximum measured 108.484 %, Maximum response 100 %, Minimum measured 91.129 %, R squared 0.123) of over 20 µM.
Work on CNCc1cc(-c2cc3c(N[C@H](c4ccc5c(c4)S(=O)(=O)CCC5)C(C)C)ncnc3[nH]2)co1 yielded an EC50 of 11.1 µM and an EC90 (Severe acute respiratory syndrome coronavirus 2, HeLa-ACE2, Baseline response 0 %, Hill slope -0.715, Maximum measured 94.818 %, Maximum response 100 %, Minimum measured 27.713 %, R squared 0.683) of over 20 µM.
CC(C)[C@H](Nc1ncnc2[nH]c(-c3cnn(C)c3C#N)cc12)c1ccc2c(n1)NC(=O)CO2 gave an EC50 of 0.858 µM and an EC90 (Severe acute respiratory syndrome coronavirus 2, HeLa-ACE2, Baseline response 0 %, Hill slope -0.619, Maximum measured 70.604 %, Maximum response 100 %, Minimum measured 3.388 %, R squared 0.805) of over 20 µM.
Work on CC(C)[C@@H](Nc1ncnc2[nH]ccc12)c1ccc2c(c1)S(=O)(=O)CCO2 yielded an EC50 of over 20 µM and an EC90 (Severe acute respiratory syndrome coronavirus 2, HeLa-ACE2, Baseline response 0 %, Hill slope -0.245, Maximum measured 99.283 %, Maximum response 100 %, Minimum measured 83.757 %, R squared 0.186) of over 20 µM.
With COc1ccc([C@@H](Cc2nnn[nH]2)NC(=O)c2ncnc3[nH]ccc23)cc1 the EC50 was over 20 µM and the EC90 (Severe acute respiratory syndrome coronavirus 2, HeLa-ACE2, Maximum measured 136.92 %, Minimum measured 93.837 %) was over 20 µM.
Work on CC(C)[C@H](Nc1ncnc2[nH]c(-c3cnn(C)c3C#N)cc12)c1ccc2c(c1)NC(=O)CO2 yielded an EC50 of 1.33 µM and an EC90 (Severe acute respiratory syndrome coronavirus 2, HeLa-ACE2, Baseline response 0 %, Hill slope -0.558, Maximum measured 72.17 %, Maximum response 100 %, Minimum measured 6.652 %, R squared 0.72) of over 20 µM.
In the case of CCNC(=O)c1cc2c(N[C@@H](c3ccc4c(c3)S(=O)(=O)NCC4)C(C)C)ncnc2[nH]1, the EC50 is reported as over 20 µM and the EC90 (Severe acute respiratory syndrome coronavirus 2, HeLa-ACE2, Maximum measured 101.15 %, Minimum measured 78.382 %) is reported as over 20 µM.
CC(C)[C@H](Nc1ncnc2[nH]c(-c3cnn(C)c3)cc12)c1ccc2c(c1)S(=O)(=O)CCC2 was tested, and the EC50 was over 20 µM and the EC90 (Severe acute respiratory syndrome coronavirus 2, HeLa-ACE2, Baseline response 0 %, Hill slope -1.829, Maximum measured 111.115 %, Maximum response 100 %, Minimum measured 52.798 %, R squared 0.593) was over 20 µM.

Source: ChEMBL document CHEMBL5441381, “ASAP - In vitro antiviral effect” (2024)
